The experiment addresses T1, human GABA A α5 receptor (α5β3γ2) (Homo sapiens, UniProt P18507+P31644).
T1 construct: expressed in transfected cells; host or cells: HEK293 cells, transiently transfected; membranes prepared from cell pellets
Description: [3H]flumazenil competition binding assay, HEK293 cells expressing human receptors. The conditions noted are these: displacement of [3H]flumazenil (0.5 nM); HEK293 cells transiently expressing human α5β3γ2; means of two determinations; read-out: hKi GABA A α5. As to the method:
Membrane Preparation and Binding Assay
The affinity of compounds at GABA A receptor subtypes was measured by competition for [3H]flumazenil (85 Ci/mmol; Roche) binding to HEK293 cells expressing rat (stably transfected) or human (transiently transfected) receptors of composition α1β3γ2, α2β3γ2, α3β3γ2 and α5β3γ2.
Cell pellets were suspended in Krebs-tris buffer (4.8 mM KCl, 1.2 mM CaCl2, 1.2 mM MgCl2, 120 mM NaCl, 15 mM Tris; pH 7.5; binding assay buffer), homogenized by polytron for ca. 20 sec on ice and centrifuged for 60 min at 4° C. (50000 g; Sorvall, rotor: SM24=20000 rpm). The cell pellets were resuspended in Krebs-tris buffer and homogenized by polytron for ca. 15 sec on ice. Protein was measured (Bradford method, Bio-Rad) and aliquots of 1 mL were prepared and stored at −80° C.
Radioligand binding assays were carried out in a volume of […] (96-well plates) which contained […] of cell membranes, [3H]flumazenil at a concentration of 1 nM for α1, α2, α3 subunits and 0.5 nM for α5 subunits and the test compound in the range of […]. Nonspecific binding was defined by 10^−5 M diazepam and typically represented less than 5% of the total binding. Assays were incubated to equilibrium for 1 hour at 4° C. and harvested onto GF/C uni-filters (Packard) by filtration using a Packard harvester and washing with ice-cold wash buffer (50 mM Tris; pH 7.5). After drying, filter-retained radioactivity was detected by liquid scintillation counting. Ki values were calculated using Excel-Fit (Microsoft) and are the means of two determinations.
Representative test results, obtained by the above described assay measuring binding affinity to HEK293 cells expressing human (h) receptors, are shown in table 1 below: […]

Each structure is given as a SMILES string.

In the case of `CCCCc1noc(C)c1/C=C/c1ccc(C(=O)OC)cn1` [Example 7, 6-[(E)-2-(3-Butyl-5-methyl-isoxazol-4-yl)-vinyl]nicotinic acid methyl ester], the Ki came out at 8.1 nM.

`CCCCc1noc(C)c1/C=C/c1ccc(C(=O)NC(CO)CO)cn1` [Example 15, 6-[(E)-2-(3-Butyl-5-methyl-isoxazol-4-yl)-vinyl]-N-(2-hydroxy-1-hydroxymethyl-ethyl)-nicotinamide]: the Ki amounted to 5.3 nM.

For the compound `Cc1onc(-c2ccccc2)c1CCc1ccc(C(=O)NC(C)C)cn1` [Example 16, N-Isopropyl-6-[2-(5-methyl-3-phenyl-isoxazol-4-yl)-ethyl]-nicotinamide], the Ki was 57.6 nM.

With `Cc1onc(-c2ccccc2)c1/C=C/c1ccc(C(=O)NC(C)CO)cn1` (stereo not drawn) [Example 5, N-(2-Hydroxy-1-methyl-ethyl)-6-[(E)-2-(5-methyl-3-phenyl-isoxazol-4-yl)-vinyl]-nicotinamide], the Ki was 2.9 nM.

In the case of `Cc1onc(-c2ccccc2)c1/C=C/c1ccc(C(=O)NCCO)cn1` [Example 4, N-(2-Hydroxy-ethyl)-6-[(E)-2-(5-methyl-3-phenyl-isoxazol-4-yl)-vinyl]-nicotinamide], the Ki came to 2 nM.

As for `Cc1onc(-c2ccccc2)c1/C=C/c1ccc(C(=O)NC2CCOCC2)cn1` [Example 3, 6-[(E)-2-(5-Methyl-3-phenyl-isoxazol-4-yl)-vinyl]-N-(tetrahydro-pyran-4-yl)-nicotinamide], the Ki was 6 nM.

As for `Cc1onc(-c2ccccc2)c1/C=C/c1ccc(C(=O)O)cn1` [Example 6, 6-[(E)-2-(5-Methyl-3-phenyl-isoxazol-4-yl)-vinyl]-nicotinic acid], the Ki amounted to 38.6 nM.

Turning to `CCCCc1noc(C)c1/C=C/c1ccc(C(=O)NC2CCOC2)cn1` (stereo not drawn) [Example 9, 6-[(E)-2-(3-Butyl-5-methyl-isoxazol-4-yl)-vinyl]-N-(tetrahydro-furan-3-yl)-nicotinamide], the Ki was 8.9 nM.

Turning to `COC(=O)c1ccc(/C=C/c2c(-c3ccccc3)noc2C)nc1` [Example 1, 6-[(E)-2-(5-Methyl-3-phenyl-isoxazol-4-yl)-vinyl]nicotinic acid methyl ester], the Ki amounted to 13.9 nM.

For `CCCCc1noc(C)c1/C=C/c1ccc(C(=O)NC(C)CO)cn1` (stereo not drawn) [Example 10, 6-[(E)-2-(3-Butyl-5-methyl-isoxazol-4-yl)-vinyl]-N-(2-hydroxy-1-methyl-ethyl)-nicotinamide], the Ki stood at 8.2 nM.

As to `CCCCc1noc(C)c1CCc1ccc(C(=O)NC2CCOC2)cn1` (stereo not drawn) [Example 18, 6-[2-(3-Butyl-5-methyl-isoxazol-4-yl)-ethyl]-N-(tetrahydro-furan-3-yl)-nicotinamide], the Ki turned out to be 58.6 nM.

As for `CCCCc1noc(C)c1CCc1ccc(C(=O)NC(C)CO)cn1` (stereo not drawn) [Example 17, 6-[2-(3-Butyl-5-methyl-isoxazol-4-yl)-ethyl]-N-(2-hydroxy-1-methyl-ethyl)-nicotinamide], the Ki was 49.4 nM.

With `CCCCc1noc(C)c1/C=C/c1ccc(C(=O)N[C@@H](C)CO)cn1` [Example 14, 6-[(E)-2-(3-Butyl-5-methyl-isoxazol-4-yl)-vinyl]-N—((S)-2-hydroxy-1-methyl-ethyl)-nicotinamide], the Ki came out at 14.1 nM.

On to `CCCCc1noc(C)c1/C=C/c1ccc(C(=O)NC(C)C)cn1` [Example 8, 6-[(E)-2-(3-Butyl-5-methyl-isoxazol-4-yl)-vinyl]-N-isopropyl-nicotinamide], for which the Ki was 18.6 nM.

With `CCCCc1noc(C)c1/C=C/c1ccc(C(=O)NC2CCOCC2)cn1` [Example 12, 6-[(E)-2-(3-Butyl-5-methyl-isoxazol-4-yl)-vinyl]-N-(tetrahydro-pyran-4-yl)-nicotinamide], the Ki was 12.9 nM.

Consider `Cc1onc(-c2ccccc2)c1/C=C/c1ccc(C(=O)NC(C)C)cn1` [Example 2, N-Isopropyl-6-[(E)-2-(5-methyl-3-phenyl-isoxazol-4-yl)-vinyl]-nicotinamide], for which the Ki is 5 nM.

Consider `CCCCc1noc(C)c1/C=C/c1ccc(C(=O)N[C@H](C)CO)cn1` [Example 13, 6-[(E)-2-(3-Butyl-5-methyl-isoxazol-4-yl)-vinyl]-N—((R)-2-hydroxy-1-methyl-ethyl)-nicotinamide], for which the Ki worked out at 12.2 nM.

Regarding `CCCCc1noc(C)c1/C=C/c1ccc(C(=O)NCC(C)(C)O)cn1` [Example 11, 6-[(E)-2-(3-Butyl-5-methyl-isoxazol-4-yl)-vinyl]-N-(2-hydroxy-2-methyl-propyl)-nicotinamide], the Ki stood at 16.3 nM.

(Values after patent publication US8389550B2, “Isoxazoles / O-pyridines with ethyl and ethenyl linker” (Hoffmann-La Roche Inc., priority 2009, dated 2013).)
